Data taken from ChEMBL document CHEMBL5370626, “Targeting the Subpocket Enables the Discovery of Thiadiazole-Pyridazine Derivatives as Glutaminase C Inhibitors” (ACS Med Chem Lett, 2023).
pIC50: −log10 of the molar value. Activity calls are given as the source filed them. The rule behind the calls is not given here.

Columns and labels:
[1] = molecular target: T1, Glutaminase kidney isoform, mitochondrial (Homo sapiens) (UniProt O94925); test: Inhibition of GAC (unknown origin)
T1 sequence (whole entry): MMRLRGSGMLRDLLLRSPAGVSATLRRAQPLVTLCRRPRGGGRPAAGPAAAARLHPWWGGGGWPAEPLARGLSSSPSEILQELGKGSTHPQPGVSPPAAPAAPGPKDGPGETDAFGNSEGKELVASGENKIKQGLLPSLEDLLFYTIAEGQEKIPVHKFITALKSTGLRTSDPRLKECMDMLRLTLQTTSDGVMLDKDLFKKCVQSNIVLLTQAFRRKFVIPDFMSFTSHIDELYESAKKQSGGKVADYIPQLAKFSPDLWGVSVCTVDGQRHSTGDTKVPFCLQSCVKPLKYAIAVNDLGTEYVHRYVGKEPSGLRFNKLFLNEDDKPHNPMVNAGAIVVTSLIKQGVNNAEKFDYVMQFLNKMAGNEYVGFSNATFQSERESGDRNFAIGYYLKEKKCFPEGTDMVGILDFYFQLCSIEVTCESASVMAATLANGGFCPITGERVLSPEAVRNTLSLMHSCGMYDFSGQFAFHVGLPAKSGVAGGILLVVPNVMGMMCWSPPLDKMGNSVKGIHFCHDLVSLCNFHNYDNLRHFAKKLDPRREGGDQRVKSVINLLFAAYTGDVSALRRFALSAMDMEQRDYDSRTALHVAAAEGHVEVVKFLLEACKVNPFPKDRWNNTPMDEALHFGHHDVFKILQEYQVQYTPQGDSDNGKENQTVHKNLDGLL

[2] = Clearance in Sprague-Dawley rat plasma at 10 mg/kg, iv measured up to 48 hrs by LC-MS/MS analysis; assay type: ADME, organism-based
[3] = Volume of distribution in Sprague-Dawley rat plasma at 10 mg/kg, iv measured up to 48 hrs by LC-MS/MS analysis; assay type: ADME, organism-based
[4] = system: A549; test: Inhibition of colony formation in human A549 cells assessed as reduction of colony number at 1 uM measured after 4 days by crystal violet staining-based colony formation assay relative to control; assay type: functional; conditions: A549, 96 h, time 4 day
[5] = molecular target: T1, Glutaminase kidney isoform, mitochondrial (Homo sapiens); test: Inhibition of human GAC in A549 cells assessed as reduction in glutamate level at 100 to 1000 nM incubated for 16 hrs by colorimetric assay; assay type: cell-based; conditions: dose 100-1000 nM
[6] = molecular target: T1, Glutaminase kidney isoform, mitochondrial (Homo sapiens); test: Inhibition of human GAC in A549 cells assessed as induction of ROS level incubated for 16 hrs by DCFH-DA staining based flow cytometric analysis; assay type: cell-based; conditions: dose 100-1000 nM
[7] = Half life in Sprague-Dawley rat plasma at 100 mg/kg, po measured up to 48 hrs by LC-MS/MS analysis; assay type: ADME, organism-based
[8] = Half life in Sprague-Dawley rat plasma at 10 mg/kg, iv measured up to 48 hrs by LC-MS/MS analysis; assay type: ADME, organism-based
[9] = Tmax in Sprague-Dawley rat plasma at 100 mg/kg, po measured up to 48 hrs by LC-MS/MS analysis; assay type: ADME, organism-based
[10] = Tmax in Sprague-Dawley rat plasma at 10 mg/kg, iv measured up to 48 hrs by LC-MS/MS analysis; assay type: ADME, organism-based
[11] = Cmax in Sprague-Dawley rat plasma at 100 mg/kg, po measured up to 48 hrs by LC-MS/MS analysis; assay type: ADME, organism-based; parameters: dose 100 mg/kg, time < 48 hrs, route po
[12] = Cmax in Sprague-Dawley rat plasma at 10 mg/kg, iv measured up to 48 hrs by LC-MS/MS analysis; assay type: ADME, organism-based; parameters: dose 10 mg/kg, time < 48 hrs, route iv
[13] = AUC(0 to t) in Sprague-Dawley rat plasma at 100 mg/kg, po measured up to 48 hrs by LC-MS/MS analysis; assay type: ADME, organism-based; parameters: dose 100 mg/kg, time < 48 hrs, route po
[14] = AUC(0 to infinity) in Sprague-Dawley rat plasma at 100 mg/kg, po measured up to 48 hrs by LC-MS/MS analysis; assay type: ADME, organism-based; parameters: dose 100 mg/kg, time < 48 hrs, route po
[15] = AUC(0 to infinity) in Sprague-Dawley rat plasma at 10 mg/kg, iv measured up to 48 hrs by LC-MS/MS analysis; assay type: ADME, organism-based; parameters: dose 10 mg/kg, time < 48 hrs, route iv
[16] = MRT(0 to t) in Sprague-Dawley rat plasma at 100 mg/kg, po measured up to 48 hrs by LC-MS/MS analysis; assay type: ADME, organism-based
[17] = MRT(0 to infinity) in Sprague-Dawley rat plasma at 100 mg/kg, po measured up to 48 hrs by LC-MS/MS analysis; assay type: ADME, organism-based
[18] = MRT(0 to infinity) in Sprague-Dawley rat plasma at 10 mg/kg, iv measured up to 48 hrs by LC-MS/MS analysis; assay type: ADME, organism-based
[19] = system: A549; test: Antitumor activity against human A549 cells xenografted in Balb/c nude mouse assessed as tumor growth inhibition at 100 mg/kg, po administered once daily 24 days relative to control; assay type: functional; conditions: A549, 576 h, time 24 day, read-out: TGI
[20] = system: A549; test: Antitumor activity against human A549 cells xenografted in Balb/c nude mouse assessed as tumor growth inhibition at 150 mg/kg, po administered once daily 24 days relative to control; assay type: functional, organism-based; conditions: time 24.0 day
[21] = molecular target: Voltage-gated inwardly rectifying potassium channel KCNH2 (Homo sapiens, UniProt Q12809); test: Inhibition of human ERG expressed in HEK293 cells at -80 mV holding potential by whole cell patch-clamp assay; assay type: toxicity, cell-based
[22] = molecular target: Voltage-dependent L-type calcium channel subunit alpha-1C (Homo sapiens, UniProt Q13936); test: Inhibition of Cav1.2 channel (unknown origin) incubated for 30 mins by Fluo-4 staining based FLIPR assay; assay type: toxicity; conditions: 0.5 h
Voltage-dependent L-type calcium channel subunit alpha-1C, sequence (Q13936 whole entry): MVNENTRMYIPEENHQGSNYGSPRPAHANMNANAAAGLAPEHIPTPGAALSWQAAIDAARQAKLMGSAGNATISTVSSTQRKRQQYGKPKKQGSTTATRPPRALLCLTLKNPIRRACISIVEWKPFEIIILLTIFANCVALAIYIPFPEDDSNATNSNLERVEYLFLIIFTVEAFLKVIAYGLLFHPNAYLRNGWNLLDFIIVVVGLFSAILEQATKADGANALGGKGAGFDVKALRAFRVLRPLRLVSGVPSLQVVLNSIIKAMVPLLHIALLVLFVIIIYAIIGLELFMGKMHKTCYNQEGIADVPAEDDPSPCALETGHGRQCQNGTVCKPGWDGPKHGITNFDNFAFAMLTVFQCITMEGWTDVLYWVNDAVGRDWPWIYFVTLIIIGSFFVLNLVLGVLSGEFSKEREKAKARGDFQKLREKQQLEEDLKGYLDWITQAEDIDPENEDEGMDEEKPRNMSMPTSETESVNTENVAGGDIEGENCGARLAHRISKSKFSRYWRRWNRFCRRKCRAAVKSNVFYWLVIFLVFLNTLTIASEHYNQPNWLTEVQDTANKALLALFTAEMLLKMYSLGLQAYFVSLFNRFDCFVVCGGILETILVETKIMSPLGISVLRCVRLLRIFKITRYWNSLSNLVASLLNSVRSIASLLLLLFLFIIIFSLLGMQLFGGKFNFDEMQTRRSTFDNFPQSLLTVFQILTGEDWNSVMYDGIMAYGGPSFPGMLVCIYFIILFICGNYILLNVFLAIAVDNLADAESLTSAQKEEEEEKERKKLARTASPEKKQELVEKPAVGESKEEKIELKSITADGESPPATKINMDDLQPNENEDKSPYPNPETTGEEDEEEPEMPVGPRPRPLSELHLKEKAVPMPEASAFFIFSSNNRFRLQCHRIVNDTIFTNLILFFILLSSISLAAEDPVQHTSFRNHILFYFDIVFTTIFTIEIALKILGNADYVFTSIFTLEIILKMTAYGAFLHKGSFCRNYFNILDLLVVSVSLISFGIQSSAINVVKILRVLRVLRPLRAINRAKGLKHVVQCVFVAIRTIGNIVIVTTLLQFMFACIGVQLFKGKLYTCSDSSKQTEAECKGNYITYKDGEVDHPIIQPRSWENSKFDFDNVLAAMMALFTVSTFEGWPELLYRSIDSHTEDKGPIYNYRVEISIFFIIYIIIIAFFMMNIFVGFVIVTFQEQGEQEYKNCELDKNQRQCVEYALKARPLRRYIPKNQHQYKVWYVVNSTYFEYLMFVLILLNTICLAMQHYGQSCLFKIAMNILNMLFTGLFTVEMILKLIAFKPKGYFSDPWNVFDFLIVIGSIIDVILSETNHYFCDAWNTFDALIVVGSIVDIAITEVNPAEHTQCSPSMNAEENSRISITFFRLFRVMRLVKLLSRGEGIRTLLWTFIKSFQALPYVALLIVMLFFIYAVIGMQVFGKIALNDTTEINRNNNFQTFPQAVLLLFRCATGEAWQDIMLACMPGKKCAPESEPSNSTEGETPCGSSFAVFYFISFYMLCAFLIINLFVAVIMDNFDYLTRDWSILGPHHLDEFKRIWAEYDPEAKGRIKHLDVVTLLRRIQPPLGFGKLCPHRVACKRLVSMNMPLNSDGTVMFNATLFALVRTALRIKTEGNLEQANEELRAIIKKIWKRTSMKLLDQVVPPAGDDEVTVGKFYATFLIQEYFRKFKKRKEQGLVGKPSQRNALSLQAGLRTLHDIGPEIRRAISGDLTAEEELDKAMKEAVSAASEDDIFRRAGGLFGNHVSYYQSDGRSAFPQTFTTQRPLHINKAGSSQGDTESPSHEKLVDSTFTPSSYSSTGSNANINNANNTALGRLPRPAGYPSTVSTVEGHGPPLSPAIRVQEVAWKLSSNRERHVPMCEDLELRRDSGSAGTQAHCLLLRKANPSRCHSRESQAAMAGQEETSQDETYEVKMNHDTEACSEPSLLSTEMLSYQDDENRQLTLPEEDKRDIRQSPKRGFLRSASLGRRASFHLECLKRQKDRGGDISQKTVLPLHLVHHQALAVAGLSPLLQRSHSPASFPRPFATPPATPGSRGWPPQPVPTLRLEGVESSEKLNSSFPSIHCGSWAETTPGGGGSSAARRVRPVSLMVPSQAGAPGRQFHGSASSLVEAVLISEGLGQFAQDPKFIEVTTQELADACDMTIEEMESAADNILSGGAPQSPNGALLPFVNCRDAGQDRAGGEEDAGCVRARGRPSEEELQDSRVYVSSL

[23] = molecular target: Sodium channel protein type 5 subunit alpha (Homo sapiens, UniProt Q14524); test: Inhibition of human Nav1.5 channel stably expressed in CHO cells at -120 mV holding potential by whole cell patch-clamp assay; assay type: toxicity, cell-based
Sodium channel protein type 5 subunit alpha, sequence (Q14524 whole entry): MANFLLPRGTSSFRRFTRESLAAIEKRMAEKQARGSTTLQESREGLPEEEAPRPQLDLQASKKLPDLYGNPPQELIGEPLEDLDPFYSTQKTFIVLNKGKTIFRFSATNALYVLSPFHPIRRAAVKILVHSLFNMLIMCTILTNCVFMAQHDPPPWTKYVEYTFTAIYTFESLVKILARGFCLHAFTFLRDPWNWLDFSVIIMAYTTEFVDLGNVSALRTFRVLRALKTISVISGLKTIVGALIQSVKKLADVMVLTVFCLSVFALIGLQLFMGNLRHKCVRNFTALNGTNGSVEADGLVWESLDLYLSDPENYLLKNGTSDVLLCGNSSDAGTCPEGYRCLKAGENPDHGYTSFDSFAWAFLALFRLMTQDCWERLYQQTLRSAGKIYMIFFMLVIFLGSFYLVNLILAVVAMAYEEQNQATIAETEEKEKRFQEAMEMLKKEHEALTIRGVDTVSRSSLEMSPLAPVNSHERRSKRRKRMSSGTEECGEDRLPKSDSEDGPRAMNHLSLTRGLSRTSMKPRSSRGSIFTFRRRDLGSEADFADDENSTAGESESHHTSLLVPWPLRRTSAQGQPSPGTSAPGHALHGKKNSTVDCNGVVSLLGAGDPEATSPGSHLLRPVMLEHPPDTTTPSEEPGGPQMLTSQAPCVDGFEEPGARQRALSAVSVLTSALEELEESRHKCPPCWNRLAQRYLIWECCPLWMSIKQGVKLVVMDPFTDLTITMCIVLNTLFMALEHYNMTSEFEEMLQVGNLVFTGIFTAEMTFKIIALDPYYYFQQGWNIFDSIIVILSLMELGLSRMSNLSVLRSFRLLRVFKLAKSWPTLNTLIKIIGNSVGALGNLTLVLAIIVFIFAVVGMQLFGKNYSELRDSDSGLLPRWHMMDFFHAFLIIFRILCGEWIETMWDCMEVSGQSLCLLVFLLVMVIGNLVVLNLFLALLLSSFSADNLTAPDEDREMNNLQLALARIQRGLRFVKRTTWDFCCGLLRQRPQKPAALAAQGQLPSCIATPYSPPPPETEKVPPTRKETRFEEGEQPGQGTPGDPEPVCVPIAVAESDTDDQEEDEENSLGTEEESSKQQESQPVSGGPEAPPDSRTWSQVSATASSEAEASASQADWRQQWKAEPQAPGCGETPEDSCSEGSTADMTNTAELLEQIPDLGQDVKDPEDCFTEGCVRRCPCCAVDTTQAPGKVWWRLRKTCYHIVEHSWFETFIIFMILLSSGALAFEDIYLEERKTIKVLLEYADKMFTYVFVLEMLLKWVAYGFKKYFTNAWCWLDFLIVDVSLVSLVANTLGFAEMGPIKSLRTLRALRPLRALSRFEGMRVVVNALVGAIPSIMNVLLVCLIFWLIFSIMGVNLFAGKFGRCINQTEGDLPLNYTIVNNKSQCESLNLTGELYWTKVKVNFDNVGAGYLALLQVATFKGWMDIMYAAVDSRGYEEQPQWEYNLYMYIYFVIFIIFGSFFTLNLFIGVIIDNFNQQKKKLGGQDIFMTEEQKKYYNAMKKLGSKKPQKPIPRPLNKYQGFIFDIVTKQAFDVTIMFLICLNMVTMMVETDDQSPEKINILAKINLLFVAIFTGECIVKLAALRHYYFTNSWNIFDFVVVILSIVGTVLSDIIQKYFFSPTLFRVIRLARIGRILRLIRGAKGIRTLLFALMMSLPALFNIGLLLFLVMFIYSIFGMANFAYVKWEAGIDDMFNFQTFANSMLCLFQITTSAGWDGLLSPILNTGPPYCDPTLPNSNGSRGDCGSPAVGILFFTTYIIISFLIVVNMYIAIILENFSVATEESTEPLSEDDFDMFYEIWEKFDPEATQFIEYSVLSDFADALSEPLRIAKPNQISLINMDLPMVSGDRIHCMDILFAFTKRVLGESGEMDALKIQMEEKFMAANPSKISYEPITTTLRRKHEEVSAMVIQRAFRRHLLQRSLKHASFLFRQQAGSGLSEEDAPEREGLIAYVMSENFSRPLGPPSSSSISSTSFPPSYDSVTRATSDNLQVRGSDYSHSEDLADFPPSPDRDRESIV

[24] = Mutagenicity in Salmonella typhimurium TA98 measured at 1.5 to 1000 ug per well for 48 to 72 hrs by mini-Ames test; assay type: toxicity, Salmonella enterica subsp. enterica serovar Typhimurium; conditions: in vivo; dose lower 1.5 µg, time lower 48 hrs, dose upper 1000 µg, time upper 72 hrs
[25] = Mutagenicity in Salmonella typhimurium TA100 measured at 1.5 to 1000 ug per well for 48 to 72 hrs by mini-Ames test; assay type: toxicity, Salmonella enterica subsp. enterica serovar Typhimurium; conditions: in vivo; dose lower 1.5 µg, time lower 48 hrs, dose upper 1000 µg, time upper 72 hrs
[26] = Mutagenicity in Salmonella typhimurium TA1535 measured at 1.5 to 1000 ug per well for 48 to 72 hrs by mini-Ames test; assay type: toxicity, Salmonella enterica subsp. enterica serovar Typhimurium; conditions: in vivo; dose lower 1.5 µg, time lower 48 hrs, dose upper 1000 µg, time upper 72 hrs
[27] = Mutagenicity in Escherichia coli WP2 uvrA measured at 1.5 to 1000 ug per well for 48 to 72 hrs by mini-Ames test; assay type: toxicity; conditions: in vivo; dose lower 1.5 µg, time lower 48 hrs, dose upper 1000 µg, time upper 72 hrs
[28] = Mutagenicity in Salmonella typhimurium TA98 measured at 1.5 to 1000 ug per well for 48 to 72 hrs in presence of S9 liver fraction by mini-Ames test; assay type: toxicity, subcellular, Salmonella enterica subsp. enterica serovar Typhimurium; conditions: dose lower 1.5 µg, time lower 48 hrs, dose upper 1000 µg, time upper 72 hrs
[29] = Mutagenicity in Salmonella typhimurium TA1535 measured at 1.5 to 1000 ug per well for 48 to 72 hrs in presence of S9 liver fraction by mini-Ames test; assay type: toxicity, subcellular, Salmonella enterica subsp. enterica serovar Typhimurium; conditions: dose lower 1.5 µg, time lower 48 hrs, dose upper 1000 µg, time upper 72 hrs
[30] = Mutagenicity in Salmonella typhimurium TA1537 measured at 1.5 to 1000 ug per well for 48 to 72 hrs in presence of S9 liver fraction by mini-Ames test; assay type: toxicity, subcellular, Salmonella enterica subsp. enterica serovar Typhimurium; conditions: dose lower 1.5 µg, time lower 48 hrs, dose upper 1000 µg, time upper 72 hrs

With `O=C(Cc1cccc(Oc2ccccc2)c1)Nc1nnc(N[C@@H]2CCN(c3cccnn3)C2)s1` the INH [1] was 8.9 nM, the clearance [2] was 2.18 L/h/kg and the Vd [3] was 15.7 L/kg. The inhibition at 1 µM [4] was about 100%, the inhibition [5] was “Active” and the inhibition [6] was “Dose-Dependent Effect”. It also gave a half-life [7] of 2.02 h, a half-life [8] of 5.06 h and a Tmax [9] of 2 h. For the same compound, the Tmax [10] was 1.98 min, the Cmax [11] was 0.487 µg/mL and the Cmax [12] was 6.5 µg/mL. It also gave an AUC(0-t) at 48 h [13] of 2.31 µg·h/mL, an AUC(0-inf) [14] of 2.33 µg·h/mL and an AUC(0-inf) [15] of 4.63 µg·h/mL. It also gave an MRT last at 48 h [16] of 3.73 h, an MRT inf [17] of 3.83 h and an MRT inf [18] of 1.59 h. The inhibition in vivo at 100 mg/kg [19] was 51.4%, the TGI [20] was “Active” and the pIC50 [21] was 5.12. The INH [22] was 21.71 µM, the INH [23] was over 30 µM and the Activity [24] was “Non-Toxic”. The Activity [25] was “Non-Toxic”, the Activity [26] was “Non-Toxic” and the Activity [27] was “Non-Toxic”. For the same compound, the Activity [28] was “Non-Toxic”, the Activity [29] was “Non-Toxic” and the Activity [30] was “Non-Toxic”.
